Legend:
aspirin-induced ulcer = assay: Effect on aspirin-induced ulcer (Brodie and Chase method); type: in vivo, rats of the Donryu strain (male); conditions: orally, rats, 15 min before 100 mg/kg aspirin, 4 h after aspirin
Experimental: According to a method reported by Brodie and Chase [Gastroenterology 53, 604 (1967)], the anti-ulcer effect was determined. Five male rats of the Donryu strain (body weight 170 to 200 g) were used for each of the control and test compound groups. After being fasted for 24 hours, the rats were orally given certain concentrations of the test compounds and 15 minutes later given orally 100 mg/kg of aspirin (Sanko Pharmaceutical Inc). Four hours after the aspirin administration, the stomach was extracted and expanded with 10 ml of 0.5% formalin. An ulcer index was calculated from the total area of ulceration for the rats of the treated and control groups. The inhibition rate was calculated by comparing the ulcer indices of both groups.

[1] = test system: blood platelet aggregation; conditions: GB 2012265A, U.S. Pat. No. 4,238,414; cited from earlier work
[2] = GB 2012265A, U.S. Pat. No. 4,238,414; cited from earlier work
[3] = Acute toxicity testing, intravenous; type: in vivo; conditions: intravenously, 10 mg per kg of body weight, five rats

## CC(C)=CCCCC(C)[C@H](O)/C=C/[C@@H]1[C@H]2C/C(=C/CCCC(=O)O)C[C@H]2C[C@H]1O (stereo partly drawn) [Preparative Example 6, 16-Methyl-20-isopropylidenecarbacyclin]
aspirin-induced ulcer; 30 γ/kg (γ = 10^-6 g)
  Inhibition Rate (%): 84%

## CCC=CC[C@H](O)/C=C/[C@@H]1[C@H]2C/C(=C/CCCC(=O)O)C[C@H]2C[C@H]1O [Reference Compound B, 17,18-Didehydrocarbacyclin]
aspirin-induced ulcer; 30 γ/kg (γ = 10^-6 g)
  Inhibition Rate (%): 15%
aspirin-induced ulcer; 100 γ/kg (γ = 10^-6 g)
  Inhibition Rate (%): 47%

## CC(C)=CCCCC[C@H](O)/C=C/[C@@H]1[C@H]2C/C(=C/CCCC(=O)O)C[C@H]2C[C@H]1O [Reference Compound C, 20-Isopropylidenecarbacyclin]
aspirin-induced ulcer; 300 γ/kg (γ = 10^-6 g)
  Inhibition Rate (%): 4%

## CCCCC[C@H](O)/C=C/[C@@H]1[C@H]2C/C(=C/CCCC(=O)O)C[C@H]2C[C@H]1O [Reference Compound A, Carbacyclin]
aspirin-induced ulcer; 100 γ/kg (γ = 10^-6 g)
  Inhibition Rate (%): 0%
aspirin-induced ulcer; 300 γ/kg (γ = 10^-6 g)
  Inhibition Rate (%): 0%
[1]
  inhibition of blood platelet aggregation: inhibition of blood platelet aggregation
[2]
  chemical stability: chemically stable

## C=CCCCC(C)(C)[C@H](O)/C=C/[C@@H]1[C@H]2C/C(=C/CCCC(=O)O)C[C@H]2C[C@H]1O [Preparative Example 3, 16,16-Dimethyl-20-methylenecarbacyclin]
aspirin-induced ulcer; 30 γ/kg (γ = 10^-6 g)
  Inhibition Rate (%): 92%

## C=CCCCC(C)[C@H](O)/C=C/[C@@H]1[C@H]2C/C(=C/CCCC(=O)O)C[C@H]2C[C@H]1O (stereo partly drawn) [Preparative Example 1, 16-Methyl-20-methylenecarbacyclin]
aspirin-induced ulcer; 10 γ/kg (γ = 10^-6 g)
  Inhibition Rate (%): 45%
aspirin-induced ulcer; 30 γ/kg (γ = 10^-6 g)
  Inhibition Rate (%): 95%
aspirin-induced ulcer; 100 γ/kg (γ = 10^-6 g)
  Inhibition Rate (%): 98%
[3]
  deaths (acute toxicity): no deaths occurred

## CC(C)=CCCC(C)C[C@H](O)/C=C/[C@@H]1[C@H]2C/C(=C/CCCC(=O)O)C[C@H]2C[C@H]1O (stereo partly drawn) [Reference Compound D, 17-Methyl-20-isopropylidenecarbacyclin]
aspirin-induced ulcer; 30 γ/kg (γ = 10^-6 g)
  Inhibition Rate (%): 30%
aspirin-induced ulcer; 100 γ/kg (γ = 10^-6 g)
  Inhibition Rate (%): 98%
